Test results from publication PMC8408276, “Distinct neuropeptide-receptor modules regulate a sex-specific behavioral response to a pheromone” (Communications Biology, 2021).
“Also recorded” adds a separate entry of the source.

Columns and labels:
[1] = tested on: C. elegans; experiment: Single worm attraction assay (SWAA); format: in vivo
Protocol: We adapted the spot retention assay (Supplementary Fig. 1)[28],[38] to allow for better characterization of individual worm behavior and robust interrogation of attraction to small molecules. We first compared the attractiveness of 1 µM ascr#8 (Fig. 1a, inset) across multiple strains of C. elegans (the wild-type N2 strain, the high incidence of male him-5 and him-8 strains, and the chemosensory cilia defective osm-3), using our novel behavioral assay, the single worm attraction assay (SWAA) (Fig. 1a). In this assay, individual animals are placed directly into the spot of the ascaroside cue (A) while simultaneously removing any potential of male–male contact. A spatial control is included throughout the assay plate to allow us to investigate any innate differences in the number of visits to the well center, or the time spent therein, of which we have only found one strain to date with differences in male dwell time (Fig. 1a). Likewise, a vehicle control (V) is also included, to account of any changes in dwell time that are driven by the components of the vehicle. The outer forty wells of a 48-well suspension culture plate (Olympus Plastics, Cat #: 25-103) were seeded with 200 µL of standard NGM agar. To prepare the plates for the assay, they were acclimated to room temperature, at which point each well was seeded with 65 µL of OP50 E. coli. […] A single worm was placed in each of the 10 wells to be assayed, and the plate was transferred to a light source and camera and recorded for 15 m. […] Raw dwell time values were calculated by subtracting the time a worm exited the cue (center of the well in spatial controls), from the time it entered, as in the SRA[14]. This was determined per visit, and the average dwell time was calculated for each animal in the quadrant. Averages of the four-quadrant means were determined per plate, and a minimum of five plates were assayed per strain/condition. The mean raw dwell time across five plates was calculated and used for statistical analyses and graphical display. […] The number of visits per-worm was calculated, and the average visit count determined per quadrant, and per plate. The average visit count across five plates was calculated and used for statistical analyses and graphical display. An “attractive visit” was first determined for each plate as any visit greater than two standard deviations above the mean dwell time within the vehicle control for that plate. Any individual visit meeting this threshold was scored as a “1”, and any below was scored a “0”. The percent visits per-worm that were attractive was determined, and the average of each quadrant taken. […] The average percent of attractive visits across five plates was calculated and used for statistical analyses and graphical display. […]

[2] = tested on: C. elegans; experiment: Drop avoidance assay; format: in vivo; settings: Fig. 2c
Protocol: Because the defect in male response to ascr#8 was significant, and the SWAA was designed to detect attractive behaviors, we sought to determine if flp-3 loss-of-function (lof) animals were in fact avoiding ascr#8. Using a previously described drop avoidance assay[11],[41], we exposed forward moving animals to a drop of either vehicle control or ascr#8 and scored the avoidance index. […] The hermaphroditic behavior was unaffected by the loss of flp-3. (Fig. 2f). […] Assays were performed as described previously[4],[11],[41]. Fifty to sixty L4 worms were segregated by sex and stored at 20 °C for 5 h to overnight to be assayed as young adults. One to four hours prior to the assay, the lids of unseeded plates were tilted to allow any excess moisture to evaporate off the plates. At the time of the assay, 10 or more animals were transferred onto each of the dried, unseeded plates. A drop of either water or 1 µM ascr#8 was placed on the tail of forward moving animals, and their response was scored as either an avoidance response, or no response. The total number of avoidances was divided by the total number of drops to generate an avoidance index for that plate. This was repeated for at least 10 plates over at least three different days. Statistical comparisons within each strain were made by paired t-test against a significance level set at 0.05. […]

[3] = tested on: C. elegans; settings: males no longer attracted to higher concentrations; cited from earlier work
Text: Here, we investigate the neuronal mechanisms governing the behavioral attractive response of male C. elegans to ascr#8[28].

[4] = tested on: NPR-10A; experiment: In vitro GPCR activation assay (CHO-K1, aequorin, Gα16), NPR-10A; format: cell-based, C. elegans; settings: CHO-K1 aequorin/Gα16 calcium response; Supplementary Fig. 10a
Protocol: This peptide contains an R-to-K mutation within the C-terminal motif, which may explain the lack of receptor activation.
The GPCR activation assay was performed as previously described[66],[74]. Briefly, npr-10 and frpr-16 cDNAs were cloned into the pcDNA3.1 TOPO expression vector (Thermo Fisher Scientific). A CHO-K1 cell line (PerkinElmer, ES-000-A24) stably expressing apo-aequorin targeted to the mitochondria (mtAEQ) and human Gα16 was transiently transfected with the receptor cDNA construct or the empty pcDNA3.1 vector using Lipofectamine LTX and Plus reagent (Thermo Fisher Scientific). Cells were shifted to 28 °C one day later and allowed to incubate for 24 h. On the day of the assay, cells were collected in BSA medium (DMEM/Ham’s F12 with 15 mM HEPES, without phenol red, 0.1% BSA) and loaded with […] coelenterazine h (Thermo Fisher Scientific) for 4 h at room temperature. The incubated cells were then added to synthetic peptides dissolved in DMEM/BSA, and luminescence was measured for 30 s at 496 nm using a Mithras LB940 (Berthold Technologies) or MicroBeta LumiJet luminometer (PerkinElmer). After 30 s of readout, 0.1% triton X-100 was added to lyse the cells, resulting in a maximal calcium response that was measured for 10 s. […]

[5] = tested on: flp-3 lof C. elegans males; experiment: Peptide rescue-by-feeding, avoidance assay; format: in vivo; settings: flp-3 lof males reared on bacteria expressing the peptide; 1 µM ascr#8 drop
Text: To identify which FLP-3 peptides are required for male avoidance of ascr#8, we adopted a peptide feeding approach, similar to RNAi feeding, as initially described previously[37],[59] (Fig. 6a). Using Gateway Cloning technology, we first inserted FLP-3 peptide coding sequences into a bacterial expression vector. As a control, we first tested the FLP-3 peptides that are still encoded in the ok3625 allele which are insufficient to drive the proper ascr#8 response in vivo: FLP-3-1 (SPLGTMRFamide) and FLP-3-4 (NPLGTMRFamide) (Supplementary Fig. 4). We then reared flp-3 lof animals on lawns of bacteria expressing the rescue constructs, and their progeny were assayed for avoidance (Fig. 6b–d, Supplementary Fig. 12).
DNA oligos containing the sequence for the peptides of interest were generated using Integrated DNA Technologies’ Ultramer synthesis service. The DNA sequence encoding the peptide sequence was flanked with sequences encoding EGL-3 cut sites (MRFGKR upstream, and KRK-STOP) downstream. These sites were then flanked with Gateway Cloning sites attB1 and attB2. Annealed oligos were then used to perform a BP reaction with pDONR p1-p2 to generate the pENTRY clones. […]
Assays were performed as described previously[4],[11],[41]. […] A drop of either water or 1 µM ascr#8 was placed on the tail of forward moving animals, and their response was scored as either an avoidance response, or no response. […]

[6] = molecular target: T1, NPR-10B (Caenorhabditis elegans, UniProt Q6EUU1); experiment: In vitro GPCR activation assay (CHO-K1, aequorin, Gα16), NPR-10B; format: cell-based, C. elegans; settings: CHO-K1 aequorin/Gα16 calcium response
T1 sequence (Q6EUU1 1-362): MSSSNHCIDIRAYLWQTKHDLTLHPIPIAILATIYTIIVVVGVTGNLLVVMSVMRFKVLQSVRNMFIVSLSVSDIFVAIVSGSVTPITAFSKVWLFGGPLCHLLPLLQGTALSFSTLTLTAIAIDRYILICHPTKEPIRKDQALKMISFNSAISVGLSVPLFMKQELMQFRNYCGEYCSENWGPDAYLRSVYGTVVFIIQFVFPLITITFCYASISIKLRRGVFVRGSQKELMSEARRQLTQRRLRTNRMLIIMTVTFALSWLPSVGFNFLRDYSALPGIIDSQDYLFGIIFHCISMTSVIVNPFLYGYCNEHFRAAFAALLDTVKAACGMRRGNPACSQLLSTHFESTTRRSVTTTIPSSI
Protocol: (§1) The GPCR activation assay was performed as previously described[66],[74]. Briefly, npr-10 and frpr-16 cDNAs were cloned into the pcDNA3.1 TOPO expression vector (Thermo Fisher Scientific). A CHO-K1 cell line (PerkinElmer, ES-000-A24) stably expressing apo-aequorin targeted to the mitochondria (mtAEQ) and human Gα16 was transiently transfected with the receptor cDNA construct or the empty pcDNA3.1 vector using Lipofectamine LTX and Plus reagent (Thermo Fisher Scientific). Cells were shifted to 28 °C one day later and allowed to incubate for 24 h. On the day of the assay, cells were collected in BSA medium (DMEM/Ham’s F12 with 15 mM HEPES, without phenol red, 0.1% BSA) and loaded with […] coelenterazine h (Thermo Fisher Scientific) for 4 h at room temperature. The incubated cells were then added to synthetic peptides dissolved in DMEM/BSA, and luminescence was measured for 30 s at 496 nm using a Mithras LB940 (Berthold Technologies) or MicroBeta LumiJet luminometer (PerkinElmer). After 30 s of readout, 0.1% triton X-100 was added to lyse the cells, resulting in a maximal calcium response that was measured for 10 s. After initial screening, concentration-response curves were constructed for HPLC-purified FLP-3 peptides by subjecting the transfected cells to each peptide in a concentration range from 1 pM to 10 µM. Cells transfected with an empty vector were used as a negative control. Assays were performed in triplicate on at least two independent days. Concentration-response curves were fitted using Prism v. 7 (nonlinear regression analysis with a sigmoidal concentration-response equation).

[7] = molecular target: T2, FRPR-16 (Caenorhabditis elegans, UniProt Q21957); experiment: In vitro GPCR activation assay (CHO-K1, aequorin, Gα16), FRPR-16; format: cell-based, C. elegans; settings: CHO-K1 aequorin/Gα16 calcium response
T2 sequence (Q21957 1-340): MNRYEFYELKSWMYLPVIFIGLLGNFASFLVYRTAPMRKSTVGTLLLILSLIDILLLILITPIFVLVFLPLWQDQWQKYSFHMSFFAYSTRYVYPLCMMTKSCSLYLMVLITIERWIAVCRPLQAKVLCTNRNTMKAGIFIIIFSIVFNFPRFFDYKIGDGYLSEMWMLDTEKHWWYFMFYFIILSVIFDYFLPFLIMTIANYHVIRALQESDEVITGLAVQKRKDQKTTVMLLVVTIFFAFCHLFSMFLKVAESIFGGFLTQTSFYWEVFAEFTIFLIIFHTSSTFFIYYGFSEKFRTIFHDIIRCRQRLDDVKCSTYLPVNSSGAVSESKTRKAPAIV
Protocol: as §1

Row | Compound | Attractive visits to the cue ([1]; 1 µM ascr#8, males of wild-type strains, Supplementary Fig. 2b) | Time spent in ascr#8 compared to the vehicle, in words ([1]; hermaphrodites from all strains) | Time spent within ascr#8 spot compared to the vehicle control, in words ([1]; males, all wild-type and him strains, Fig. 1b, c) | Avoidance of the cue, in words ([2]; flp-3 lof males) | Avoidance of the cue, in words ([2]; wild-type males) | Concentration preferred by males (behavioral tuning curve) [3] [µM] | Activation of NPR-10A, in words [4] | Rescue of the ascr#8 avoidance phenotype, in words [5] | Activation of NPR-10 (NPR-10B), in words [6] | Activation of FRPR-16, in words [7]
1 | C[C@H](CC/C=C/C(=O)Nc1ccc(C(=O)O)cc1)O[C@@H]1O[C@@H](C)[C@H](O)C[C@H]1O [ascr#8] | 30–45% | significantly less time | significant increase | strongly avoided | did not avoid | ~1 | – | – | – | –
2 | STVDSSEPVIRDQ [FLP-3-10, non-RFamide peptide encoded by the flp-3 gene] | – | – | – | – | – | – | activated no receptors | unable to rescue the avoidance phenotype | activated no receptors; also recorded: failed to activate; also recorded: did not activate either receptor | activated no receptors; also recorded: did not activate either receptor
